`Nn1c(Cc2ccccc2)nc2ccccc2c1=O` returned a melting point of 111 °C.

Turning to `O=[N+]([O-])c1ccc(O)cc1C(F)(F)F`, the melting point amounted to 76 °C. The result for `N#CC(=CNc1ccccn1)C(=O)c1ccccc1` reads 153 to 154 °C; that for `CCOC(=O)C(C#N)c1cc(Cl)c([N+](=O)[O-])cc1[N+](=O)[O-]` (stereo not drawn), 109 °C.

In the case of `CC(C)S(=O)(=O)CC#N`, the melting point is 32 to 34 °C. The result for `COc1ccc(C(=O)c2nn3c(nc(=O)c4ccccc43)s2)cc1` reads 179 °C. The result for `CCOC(=O)c1cc2cc(C(F)(F)F)c(C(F)(F)F)cc2c(=O)o1` reads 193 °C. The result for `COc1ccc(OC2OC(CO)C(O)C(O)C2O)cc1` (stereo not drawn) reads 159 °C; that for `Nc1ccc(Cc2ccccc2)cc1`, 37 °C; that for `O=C1CC(=O)N(c2ccccc2)N1`, 191 °C. The compound `Cn1c(C(F)(F)F)n[nH]c1=S` came in with a melting point of 116 to 118 °C.

Compound `c1ccc2c(c1)ccc1nncn12` gave a melting point of 175 to 177 °C. The value for `CCS(=O)(=O)O` was -17 °C. The compound `O=C(CBr)c1ccc(-c2ccccn2)s1` registered a melting point of 123 to 126 °C.

Compound `CC1=C(C)C([Si](C)(C)C2C(C)=C(C)C(C)=C2C)C(C)=C1C` registered a melting point of 65 to 68 °C. The value for `Nc1ccccc1NC(C(=O)Nc1ccccc1)(c1ccccc1)c1ccccc1` was 160 °C; that for `O=C(NCCCCO)OCC1c2ccccc2-c2ccccc21` was 115 to 117 °C. Regarding `O=c1ncn2nc(Sc3ccccc3)ccc2c1-c1c(Cl)cccc1Cl`, the melting point fell in the range of 262 to 265 °C. The value for `O=C(CBr)c1nccs1` was 54 to 55 °C; that for `CC(=O)OC1CC2C(C)C(=O)C3(C(O)CC4C(C)(C)CCC(OC(C)=O)C4(C)C13)C2O` (stereo not drawn) was 246 °C.

Consider `c1c2c(cc3c1OCO3)CC2`, for which the melting point was found to be 62 °C. `O=C(c1ccc(F)cc1)N1CCCCC1` returned a melting point of 60 to 62 °C. The result for `Cc1ccc(C=C(C#N)C#N)cc1` reads 132 to 133 °C; that for `CN(C)P(=O)(N(C)C)N(C)C`, 7.2 °C. The result for `Cc1c(C)c(C)c(C=O)c(C)c1C` reads 146 to 148 °C; that for `O=c1[nH]c2scc(-c3ccccc3)c2c(=O)n1-c1ccc(F)cc1`, 300 to 302 °C.

In turn, `OCCCc1nc2cc(C(F)(F)F)ccc2[nH]1` returned a melting point of 134 to 135 °C. The value for `COC(=O)[C@@H]1C[C@@H](O)CN1C(=O)OC(C)(C)C` was 91 to 96 °C. The result for `OOC1CCCc2ccccc21` (stereo not drawn) reads 56 °C; that for `O=C(O)c1cccc(Cn2cccn2)c1`, 151 to 152 °C; that for `Cc1ccc([N+](=O)[O-])cc1O`, 118 °C.

In the case of `CC(=O)COc1c([N+](=O)[O-])ccc(F)c1F`, the melting point was 40 to 45 °C. `CCCCCCNC` showed a melting point of -31 °C.

For `CC(=NO)c1cccnc1`, the melting point lay in the range of 103 to 105 °C. The result for `O=C(NCc1ccc(S(=O)(=O)Cl)s1)c1ccc(Cl)cc1` reads 138 to 140 °C; that for `CCOc1c(NCc2ccccc2)c(=O)c1=O`, 68 to 72 °C; that for `C=Cc1ccccc1C(=O)O`, 94 °C.

The compound `Cc1ccc2nc(C)c(C)nc2c1` returned a melting point of 93 °C.

Regarding `Cc1nc(Cl)c(C#N)c(C)c1Cl`, the melting point was 82 to 83 °C. The compound `CSc1cc(-c2ccc(Cl)cc2)c2c(=O)n(-c3ccccc3)n(C)c2c1` yielded a melting point of 167 °C.

`O=C1C=CC(=O)[C@@H]2Cc3ccccc3C[C@H]12` showed a melting point of 127 to 128 °C.

The compound `O=C(c1ccc(Cl)cc1)c1noc(-c2ccc3ccccc3c2)c1S(=O)(=O)c1ccccc1` came in with a melting point of 135 °C. Regarding `CC(=O)C1(C)CCC2C3C=C(C)C4=CC(=O)CCC4(C)C3CCC21C` (stereo not drawn), the melting point amounted to 144 °C. The result for `O=C(Cc1ccccc1)C(=O)C(Br)c1ccccc1` (stereo not drawn) reads 73 °C; that for `CC(=O)OC1CCC2(C)C(=CCC3C2CCC2(C)C(C(C)=O)CCC32)C1` (stereo not drawn), 149 to 152 °C; that for `N#C/C(=N/Nc1cc(Cl)ccc1Cl)c1nc(-c2ccccc2)cs1`, 133 °C.

For the compound `O=C(O)c1cccnc1Sc1ccccc1`, the melting point fell in the range of 165 to 167 °C.

Consider `O=C(O)c1ccc[nH]c1=S`, for which the melting point stood at 270 °C. The result for `NC(=O)C1C2C=CC(C2)C1N` (stereo not drawn) reads 235 to 253 °C; that for `O=CC(C=O)c1ccc(Cl)cc1[N+](=O)[O-]`, 137 to 143 °C. The compound `O=C1CCCc2c(O)cccc21` displayed a melting point of 207 to 210 °C. The value for `O=C(NC1C2C=CC(C2)C1C(=O)O)OCc1ccccc1` (stereo not drawn) was 119 to 123 °C. The value for `CC(C)CC1=CC(=Cc2ccc(-c3ccc([N+](=O)[O-])cc3)o2)C(=O)O1` was 162 to 163 °C; that for `NC(=O)c1ccc(CC(=O)c2ccc(Cl)cc2)cc1` was 221 to 223 °C; that for `Nc1cccc(COc2ccccc2)c1` was 45 to 47 °C. `CC12CCC3C(CCC(CC(=O)O)C3(C)CC(=O)O)C1CCC2=O` (stereo not drawn) displayed a melting point of 223 to 224 °C. The result for `O=S(=O)(O)CCN1CCN(CCS(=O)(=O)O)CC1` reads 300 °C; that for `O=[N+]([O-])c1cccnc1N1CCOCC1`, 89 to 91 °C; that for `O=C(Cl)c1cccnc1Cl`, 40 °C. The value for `N#Cc1ccc(C(Cl)C(Cl)c2cccc(C(Cl)C(Cl)c3ccc(C#N)cc3[N+](=O)[O-])c2)c([N+](=O)[O-])c1` (stereo not drawn) was 248 °C. The result for `O=Cc1csc(-c2cccc(Cl)c2)n1` reads 103 to 104 °C; that for `CNCc1ccccc1Cn1cncn1`, 57 to 59 °C; that for `Brc1c[nH]cn1`, 126 to 132 °C. Regarding `CC1(C(=O)O)CCC(O)(CC(O)c2ccccc2)C1(C)C` (stereo not drawn), the melting point turned out to be 188 °C.

Take `CC(C)(C)c1ccc(-c2nn[nH]n2)cc1`: the melting point fell in the range of 193 to 195 °C.

Compound `O=C1C2CCCC1CCC2` had a melting point of 153 to 157 °C. The value for `COc1ccccc1N=Nc1ccccc1` was 41 °C; that for `CC(C)=CCCC(C)=CC=CC(C)=CC=CC(C)=CC=CC=C(C)C=CC=C(C)C=CC=C(C)CCCC(C)(C)O` was 171 °C; that for `CC(=Nc1ccc(N=Nc2ccccc2)cc1)c1c(O)c2ccccc2n(-c2ccccc2)c1=O` was 191 °C. The result for `CCOC(=O)C=C(C)OCC` reads 30 °C; that for `CCOC(=O)C(C#N)=NO`, 130 °C. `CC(C)(C)OC(=O)N1CCNCC1` registered a melting point of 47 to 49 °C. The result for `O=CCCc1ccccc1` reads 47 °C. `COc1cc(CCNC(=O)Cc2ccc(OC)c(OCc3ccccc3)c2)ccc1OCc1ccccc1` yielded a melting point of 140 °C.

Compound `O=C(O)c1ccc(N2CCOCC2)nc1` gave a melting point of 256 to 257 °C. The result for `C1CCCCCCCCCCCCC1` reads 54 °C; that for `S=C=NC12CC3CC(CC(C3)C1)C2`, 166 to 168 °C. `Cc1ccc(C2(c3ccc(C)o3)C(=O)Nc3ccccc32)o1` yielded a melting point of 216 °C. The compound `O=[N+]([O-])c1cccc(F)c1CBr` registered a melting point of 52 °C. The result for `NS(=O)(=O)c1ccc(SCCO)c(F)c1` reads 110 °C. The value for `CC(C)=CCC1C(=O)N(c2ccccc2)N(c2ccccc2)C1=O` was 156 °C. `BrCc1ccc(I)cc1` came in with a melting point of 80 °C. The value for `Cc1ccc(-c2csnn2)cc1` was 73 to 75 °C.

As for `NNC(=O)c1ccc(OCc2ccccc2)cc1`, the melting point turned out to be 140 °C. The value for `CC(C)CCCC(C)C1CCC2C3CCC4=CC(=O)CCC4(C)C3CCC12C` (stereo not drawn) was 79 to 82 °C. The value for `O=[N+]([O-])c1cccc(C2OCCO2)c1` was 54 °C.

With `CC(C)(C)C(=O)CC(=O)C(F)(F)C(F)(F)C(F)(F)F`, the melting point came to 38 °C. The value for `c1ccc(C(CCN2CCCCC2)c2ccccc2)cc1` was 41 °C; that for `O=C(O)C(Cc1ccccc1)C(=O)O` was 121 °C; that for `O=c1cc(-c2ccccc2)oc2cc(O)ccc12` was 246 °C. The result for `C=Cc1ccc(I)cc1` reads 44 °C; that for `NNC(=O)c1ccc(C(F)(F)F)cc1`, 121 °C; that for `O=C(Cl)c1cnccn1`, 150 °C.

`COC(=O)[C@@H]1CCCN1C(=O)COC(=O)c1ccccc1` displayed a melting point of 72.5 °C. The result for `O=[N+]([O-])c1ccc(SSc2ccc([N+](=O)[O-])cc2)cc1` reads 182 °C; that for `OCc1cc(-c2ccco2)on1`, 90 to 91 °C. `CC1(C)CC(=O)C(=NNc2ccc(Br)cc2)C(=O)C1` returned a melting point of 204 °C. `O=C(COC(=O)c1ccccc1)c1ccccc1`: the melting point was 119 °C. `Cc1c(Cl)ccc(OC(C)C(=O)Nc2ccccc2)c1Cl` (stereo not drawn) showed a melting point of 146 °C.

`O=S(=O)(c1ccc(Cl)cc1)c1cc(Cl)c(Cl)cc1Cl` came in with a melting point of 147 °C. The result for `COP(=S)(OC)Oc1cc(Cl)c(Br)cc1Cl` reads 53.5 °C. The value for `CN(C)c1ccc(C=Cc2ccccc2)cc1` was 150 °C. The value for `Cc1cc(C)c([N+](=O)[O-])c(C)c1[N+](=O)[O-]` was 85.3 °C; that for `O=C(O)Cc1ccc(OCc2ccccc2)cc1` was 123 to 124 °C; that for `O=C(O)c1cc(F)cc([N+](=O)[O-])c1` was 125 °C.

Compound `O=C1OC(=O)C23Cc4ccccc4CC12Cc1ccccc1C3` (stereo not drawn) came in with a melting point of 267 to 270 °C. The value for `Cc1cc(CO)n[nH]1` was 78 to 80 °C; that for `CCOC(C(=O)c1ccccc1)c1ccccc1` (stereo not drawn) was 62 °C.

The record behind these values is a melting point compilation (Tetko et al.).
